Entries after “also recorded” stand apart in the source; their conditions may differ.
Legend:
[1] = Photosensitivity screening assay (H2O2 by Amplex Ultra Red after light exposure); format: physicochemical; conditions: for (H2O2 produced by Compound)/(H2O2 produced by L-Trp) / H2O2 produced compared to L-Trp, in words: 1 mM in 20 mM histidine acetate pH 5.5, four hours of light at 250 W/m^2; for H2O2 produced in comparison to L-Trp: 1 mM, four hours of light at 250 W/m^2, times more H2O2 than L-Trp
Description: As a screening tool, antioxidant candidates were exposed to light for four hours at 250 W/m^2 and the resulting H2O2 formation was quantified by the Amplexassay. Specifically, antioxidants were prepared to 1 mM in 20 mM histidine acetate buffer at pH 5.5. The 1 mM antioxidant solutions were aliquoted into glass vials (2 mL/glass vial) and exposed to four hours of light at 250 W/m^2 in an Atlas SunTest CPS+ Xenon Test Instrument (Chicago, Ill.). Total UV dose was 90 watt-hours/square meter and total visible dose was 0.22 million lux hours over the 4-hour period. Control vials were wrapped in aluminum foil and treated similarly. The amount of hydrogen peroxide generated after exposure to light was measured using the Amplex® Ultra Red Assay (Invitrogen, Carlsbad, Calif.) following the manufacturer's recommended procedure. On addition of horseradish peroxidase (HRP), the dye reacted 1:1 stoichiometrically with H2O2, resulting in the production of fluorescent oxidation product resorufin. In this study, fluorescence readings were obtained using a Spectra Max M2 Micro-plate Reader (Molecular Devices, Sunnyvale, Calif.) with excitation and emission set at 560 nm and 590 nm, respectively. Final H2O2 concentrations were determined using a standard curve ranging from 0 μm to 20 μm.

[2] = Cyclic voltammetry (CV) screening assay, oxidation potential; format: physicochemical
Description: The oxidation/reduction characteristics of the compounds were investigated. Several compounds, including L-Trp and derivatives, were evaluated for the protection of Trp oxidation in proteins using cyclic voltammetry (CV) and rank ordered based on their oxidation potentials (Table 2). Specifically, the candidate antioxidants were dissolved in deionized water and then added to a 0.2 M lithium perchlorate electrolyte solution. […] Solutions were scanned from −0.10 V to +1.50 V at a scan rate of either 100 or 500 mV/sec. The analytical cell was purged for four minutes with nitrogen before scanning of each antioxidant solution. The input was a linear scan of the potential of a working electrode, and the output was measurement of the resulting current. […] Redox reactions were characterized by sharp increases or decreases in current (peaks). The potential at which an oxidation reaction occurred was referred to as the anodic peak potential (or oxidation potential), and the potential at which a reduction occurred was referred to as is the cathodic peak (or reduction) potential.

[3] = system: mAb1; experiment: mAb1 light stress study (16 hours at 250 W/m^2), RP-HPLC; format: physicochemical, human; conditions: 16 hours of light at 250 W/m^2
Description: (§1) The fragments were reduced with DTT, and then separated and identified via Liquid Chromatography-Mass Spectrometry (LC-MS). […] Comparison of area integrated under the oxidized and native peaks was used to quantify HC Fab and Fc oxidation. […] By using the papain digest RP-HPLC method in the present study it was possible to investigate Trp residue oxidation by quantifying HC Fab oxidation, and Met residue oxidation by quantifying HC Fc oxidation.
Antioxidants were added at 1 mM. Glass vials containing these formulations were exposed to 250 W/m^2 light in an Atlas SunTest CPS+ Xenon Test Instrument (Chicago, Ill.). Control vials were wrapped in aluminum foil and treated similarly. After light exposure, solutions were prepared for analysis by reverse-phase HPLC as described above.

[4] = system: mAb1; experiment: mAb1 AAPH stress study, RP-HPLC; format: physicochemical, human; conditions: mAb1 with AAPH for 24 hours at 40° C.; antioxidants at 1 mM or none
Description: as §1
Antioxidants were added at 1 mM. […] After buffer exchange, each solution was prepared for analysis by reverse-phase HPLC as described above.

[5] = system: mAb1; experiment: Light stress of mAb1 formulation (eight hours at 250 W/m^2), papain digest RP-HPLC; format: physicochemical, human
Description: L-tryptophan (L-Trp), an antioxidant used in protein formulations, has been recently shown to be photosensitive (Igarashi et al., Anal Sci 23(8):943-8 (2007)) and to have the ability to produce H2O2 upon light exposure. […] Control vials were wrapped in aluminum foil and treated similarly. After light exposure, solutions were prepared for analysis by reverse-phase HPLC. […] Following incubation, 900 μL of the solution was combined with 100 μL of 1 M dithiothreitol (DTT) and incubated for another thirty minutes at 37° C. Samples were then run on an Agilent, Inc. 1100/1200 HPLC system (Santa Clara, Calif.) equipped with UV detection at 280 nm in conjunction with a Varian, Inc. Pursuit 3 μm, 2 mm ID×250 mm diphenyl column (Palo Alto, Calif.). Mobile Phase A was 0.1% TFA in water. Mobile Phase B was 0.1% TFA in acetonitrile. The mobile phase gradient increased linearly from 34% B at 0 minutes to 43% B at 50.0 minutes, then to 95% B at 50.1 minutes. The gradient remained at 95% B until 60.1 minutes, and then decreased linearly from 95% B to 34% B between 60.1 and 60.2 minutes. The gradient remained at 34% B until the end of the cycle at 80.2 minutes. The column temperature was 65° C., total flow rate was 0.2 mL/min, and injection volume of each sample was 6 μL. Chromatograms were then integrated for quantification of oxidation.

[6] = anodic peak potential, glassy carbon working electrode, 0.2M lithium perchlorate
[7] = cyclic voltammetry, 0.2 M lithium perchlorate

| SMILES | (H2O2 produced by Compound)/(H2O2 produced by L-Trp) [1] | Oxidation Potential [2, 6] [V vs Ag/AgCl] | Oxidation potential relative to L-Trp, in words ([2]; cyclic voltammetry) | H2O2 produced compared to L-Trp, in words [1] | further results |
| --- | --- | --- | --- | --- | --- |
| Nc1ccc2[nH]cc(CC(N)C(=O)O)c2c1 (racemic) [5-Amino-DL-Trp, 5-amino-DL-tryptophan] | 0.29 | 0.410 |  |  | Oxidation Potential [2, 7]: 0.410 V vs Ag/AgCl |
| COc1ccc2[nH]cc(CC(N)C(=O)O)c2c1 (racemic) [5-Methoxy-DL-Trp, 5-methoxy-DL-tryptophan] | 1.05 | 0.890 |  |  | Oxidation Potential [2, 7]: 0.890 V vs Ag/AgCl |
| NC(Cc1c[nH]c2ccc([N+](=O)[O-])cc12)C(=O)O (racemic) [5-nitro-DL-tryptophan] |  | 1.055 | higher oxidation potential than L-Trp |  |  |
| Oc1cccc2[nH]ccc12 [4-Hydroxyindole] | 0.00 |  |  |  |  |
| N[C@@H](Cc1c[nH]c2ccc(F)cc12)C(=O)O [5-Fluoro-L-Trp, 5-fluoro-L-tryptophan] | 0.71 | 0.965 | higher oxidation potential than L-Trp |  |  |
| N[C@@H](Cc1c[nH]c2ccc(O)cc12)C(=O)O [5-Hydroxy-L-Trp, 5-hydroxy-L-tryptophan] | 0.09 | 0.565 |  | about one tenth | Light-induced Fab oxidation, effect in words ([3]; excipient 1 mM): near control levels; Fab (Trp residue) oxidation [4]: about 2% |
| Nc1ccc(O)cc1C(=O)O [5-Hydroxyanthranilic Acid] | 0.44 |  |  | half as much H2O2 |  |
| O=C(O)Cc1c[nH]c2ccc(O)cc12 [5-Hydroxyindole-3-Acetic Acid] | 0.11 | 0.535 |  |  |  |
| Oc1ccc2[nH]ccc2c1 [5-Hydroxyindole] | −0.08 | 0.580 |  |  | Light-induced Fab oxidation, effect in words ([3]; excipient 1 mM): near control levels; Fab (Trp residue) oxidation [4]: about 2% |
| O=C(O)c1cc(O)ccc1O [5-Hydroxysalicylic Acid] | 0.84 |  |  | behaved like L-Trp |  |
| O=C(O)c1cc2cccc(O)c2[nH]1 [7-Hydroxyindole-2-Carboxylic Acid] | 0.15 |  |  |  |  |
| Oc1cccc2cc[nH]c12 [7-Hydroxyindole] | −0.03 |  |  |  | Light-induced Fab oxidation, effect in words ([3]; excipient 1 mM): near control levels; Fab (Trp residue) oxidation [4]: about 2% |
| Nc1ccccc1C(=O)O [Anthranilic Acid] | 2.50 |  |  | twice as much H2O2 |  |
| O=C(O)Cc1c[nH]c2ccccc12 [Indole-3-Acetic Acid] | 2.40 | 0.948 | higher oxidation potential than L-Trp | twice as much H2O2; also recorded: two times more H2O2 |  |
| c1ccc2[nH]ccc2c1 [Indole] | 0.95 |  | significantly lower oxidation potential than L-Trp | behaved similarly to L-Trp |  |
| Nc1ccccc1C(=O)C[C@H](N)C(=O)O [L-Kynurenine, L-kynurenine] | 0.20 | 1.040 | higher oxidation potential than L-Trp | about one fifth |  |
| CSCC[C@H](N)C(=O)O [L-Met, L-methionine] |  |  |  |  | Fab oxidation, effect in words ([5]; 10, 25, 50, and 100 mM L-Met added to formulation containing 1 mM L-Trp, eight hours of light): appeared to reduce Fab oxidation slightly; Fc oxidation, effect in words ([5]; eight hours of light at 250 W/m^2, no excipient, or 10, 25, 50 and 100 mM L-Met added to 1 mM L-Trp): reduced the amount of Fc oxidation |
| NC(=O)[C@@H](N)Cc1c[nH]c2ccccc12 [L-Trpamide, L-tryptophanamide] | 0.43 | 1.015 | higher oxidation potential than L-Trp |  | Fab oxidation increase over the control level (mAb1 Ref Mat) ([3]; excipient 1 mM or none): 8 fold; Light-induced Fc oxidation, effect in words ([3]; excipient 1 mM, compared to no excipient): more Fc oxidation |
| COc1ccc2[nH]cc(CCNC(C)=O)c2c1 [Melatonin (N-Acetyl-5-Methoxytryptamine), N-Acetyl-5-Methoxytryptamine] | 0.28 | 0.730 |  | less than a third |  |
| CC(=O)N[C@@H](Cc1c[nH]c2ccccc12)C(=O)O [N-Acetyl-L-Trp, N-acetyl-L-tryptophan] | 0.31 | 0.875 |  |  |  |
| Cc1ncc(CO)c(CO)c1O [Pyridoxine] | 5.16 |  |  |  | H2O2 produced in comparison to L-Trp [1]: 5 times |
| Cc1c(C)c2c(c(C)c1O)CCC(C)(C(=O)O)O2 (centres unmarked) [Trolox] | 122.75 |  |  |  | H2O2 produced in comparison to L-Trp [1]: 123 times |
| NCCc1c[nH]c2ccccc12 [Tryptamine] | 0.53 | 1.010 | higher oxidation potential than L-Trp | about half as much H2O2 | H2O2 produced compared to L-Trp, in words ([1]; listed as tryptamine): two times less |
